Assay results reported in ChEMBL document CHEMBL1136294, “Aryloxazolidinediones: identification of potent orally active PPAR dual alpha/gamma agonists” (Bioorg Med Chem Lett, 2003).

Experiments:
[1] = target: T1, Peroxisome proliferator-activated receptor delta (Homo sapiens, UniProt Q03181)
T1 sequence (Q03181 whole entry): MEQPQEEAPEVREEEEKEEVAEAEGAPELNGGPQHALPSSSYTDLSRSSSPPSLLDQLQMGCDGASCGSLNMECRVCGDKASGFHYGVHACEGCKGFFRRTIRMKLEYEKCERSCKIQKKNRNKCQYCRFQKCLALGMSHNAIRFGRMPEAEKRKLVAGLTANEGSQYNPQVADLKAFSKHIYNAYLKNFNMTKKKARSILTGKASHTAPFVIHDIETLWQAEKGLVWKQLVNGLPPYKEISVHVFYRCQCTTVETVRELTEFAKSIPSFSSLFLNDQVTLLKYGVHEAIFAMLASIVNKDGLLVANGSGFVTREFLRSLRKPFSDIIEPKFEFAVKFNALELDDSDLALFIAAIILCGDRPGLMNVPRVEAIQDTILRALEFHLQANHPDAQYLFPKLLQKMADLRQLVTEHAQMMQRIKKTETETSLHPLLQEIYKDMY
Description: In vitro binding affinity was tested towards human Peroxisome proliferator activated receptor delta

[2] = target: T1, Peroxisome proliferator-activated receptor delta; type: functional
Description: In vitro activity in human Peroxisome proliferator activated receptor delta-transactivation assay

[3] = species on record: Rattus norvegicus; details: in vivo
Description: Area under curve in SD rats

[4] = in vivo; details: Sprague-Dawley, rat, po
Description: Oral bioavailability in rat (Sprague-Dawley)

[5] = in vivo; details: Sprague-Dawley, rat, po, 2 mg/kg
Description: Clearance in Sprague-Dawley rats after 2mg/kg oral dose

[6] = target: T2, Peroxisome proliferator-activated receptor alpha (Homo sapiens, UniProt Q07869); type: functional
T2 sequence (Q07869 whole entry): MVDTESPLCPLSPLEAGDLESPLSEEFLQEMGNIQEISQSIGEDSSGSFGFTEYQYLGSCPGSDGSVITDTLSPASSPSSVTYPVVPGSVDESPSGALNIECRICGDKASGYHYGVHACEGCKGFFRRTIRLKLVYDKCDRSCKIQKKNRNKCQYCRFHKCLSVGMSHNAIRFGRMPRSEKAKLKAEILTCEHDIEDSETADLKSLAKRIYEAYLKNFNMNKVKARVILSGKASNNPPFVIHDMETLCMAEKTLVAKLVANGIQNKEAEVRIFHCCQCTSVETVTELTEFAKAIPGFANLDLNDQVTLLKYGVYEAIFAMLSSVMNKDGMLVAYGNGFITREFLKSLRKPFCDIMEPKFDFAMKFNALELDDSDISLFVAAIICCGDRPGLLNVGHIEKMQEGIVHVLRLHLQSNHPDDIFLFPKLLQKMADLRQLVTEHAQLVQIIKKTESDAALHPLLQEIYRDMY
Description: In vitro activity in human Peroxisome proliferator activated receptor alpha-transactivation assay

[7] = target: T2, Peroxisome proliferator-activated receptor alpha
Description: In vitro binding affinity was tested towards human Peroxisome proliferator activated receptor alpha

[8] = species on record: Rattus norvegicus; details: in vivo, po
Description: Area under curve for a 2-mpk po dose in SD rats

[9] = in vivo; details: Sprague-Dawley, rat
Description: Half life period in SD rats

Row | IC50 [1] [µM] | EC50 [2] [µM] | SMILES | other results
1 | > 50 | – | CCCc1cc(C2CCC(O)CC2)ccc1OCCCOc1cccc(C2OC(=O)NC2=O)c1 (stereo unspecified) | –
2 | 3.85 | – | CCCc1cc(C2CCCC2)ccc1OCCCOc1cccc(C2OC(=O)NC2=O)c1 (stereo unspecified) | –
3 | > 50 | > 3 | CCCc1cc(C(=O)c2ccc(Cl)cc2)ccc1OCCCOc1cccc(C2SC(=O)NC2=O)c1 (stereo unspecified) | –
4 | > 50 | > 3 | CCCc1cc(C=C2CCCCC2)ccc1OCCCOc1cccc(C2SC(=O)NC2=O)c1 (stereo unspecified) | –
5 | > 50 | – | CCCc1cc(C2CCOCC2)ccc1OCCCOc1cccc(C2OC(=O)NC2=O)c1 (stereo unspecified) | –
6 | 0.92 | – | CCCc1cc(OC2CCCC2)ccc1OCCCOc1cccc(C2SC(=O)NC2=O)c1 (stereo unspecified) | –
7 | > 50 | > 3 | CCCc1cc(C2CCCCCC2)ccc1OCCCOc1cccc(C2OC(=O)NC2=O)c1 (stereo unspecified) | –
8 | > 50 | – | CCCc1cc(OC2CCCCCC2)ccc1OCCCOc1cccc(C2SC(=O)NC2=O)c1 (stereo unspecified) | –
9 | > 50 | > 3 | CCCc1cc(C2CCCCC2)ccc1OCCCOc1cccc(C2OC(=O)NC2=O)c1 (stereo unspecified) | –
10 | > 50 | > 3 | CCCc1cc(C2CCC(C)(C)CC2)ccc1OCCCOc1cccc(C2OC(=O)NC2=O)c1 (stereo unspecified) | –
11 | > 50 | > 3 | CCCc1cc(C(=O)C2CCCCC2)ccc1OCCCOc1cccc(C2SC(=O)NC2=O)c1 (stereo unspecified) | AUC [3]: 0.07 µM; bioavailability [4]: 7.8%; CL/F [5]: 29.5 mL/min/kg
12 | > 50 | > 3 | CCCc1cc(OC2CCCCC2)ccc1OCCCOc1cccc(C2SC(=O)NC2=O)c1 (stereo unspecified) | AUC [3]: 0.3 µM; bioavailability [4]: 10%
13 | > 5 | > 3 | CCCc1ccccc1OCCCOc1cccc(C2OC(=O)NC2=O)c1 (stereo unspecified) | EC50 [6]: 0.053 µM; IC50 [7]: 0.08 µM; AUC [8]: 1.1 µM; bioavailability [4]: 27%; half-life [9]: 3.6 h
14 | > 50 | > 3 | CCCc1cc(CC2CCCCC2)ccc1OCCCOc1cccc(C2SC(=O)NC2=O)c1 (stereo unspecified) | –
15 | 1.51 | > 3 | CCCc1cc(-c2ccccc2)ccc1OCCCOc1cccc(C2OC(=O)NC2=O)c1 (stereo unspecified) | –
16 | 0.17 | > 3 | CCCc1cc(C(=O)c2ccccc2)ccc1OCCCOc1cccc(C2SC(=O)NC2=O)c1 (stereo unspecified) | –
17 | > 50 | > 3 | CCCc1cc(C2CCC(F)(F)CC2)ccc1OCCCOc1cccc(C2OC(=O)NC2=O)c1 (stereo unspecified) | –
18 | 0.14 | – | CCCc1cc(-c2noc3ccccc23)ccc1OCCCOc1cccc(C2SC(=O)NC2=O)c1 (stereo unspecified) | –
19 | > 50 | – | CCCc1cc(C2CCC(=O)CC2)ccc1OCCCOc1cccc(C2OC(=O)NC2=O)c1 (stereo unspecified) | –
